From PMC9672079, “Micro-PET imaging of hepatitis C virus NS3/4A protease activity using a protease-activatable retention probe” (Frontiers in Microbiology, 2022) come the findings set out here.

The test system of data set [1] is NS3/4A-HCC36 cells. Kind of data set: Retention of TAT-ΔNS3/4A-FITC in cells, fluorescence microscopy. Format: cell-based, Human. The settings on record: fluorescence microscope. As to the method: (§1) HCC36 or NS3/4A-HCC36 cells (1 × 10^5) were seeded with DMEM containing 10% serum in a 24-well plate at 37°C in a CO2 incubator overnight. The cells were incubated with 10 μM of TAT-ΔNS3/4A-FITC in the presence or absence of 2 μM telaprevir (purchased from Legend Star International, Taiwan) at 37°C for 1 h. After probe staining, the cells were washed using DMEM containing 10% serum per 20 min until the end of the experiment. After 8 h washing, the fluorescence of viable cells was observed under a fluorescence microscope at the indicated times (Axiovert 200, Carl Zeiss MicroImaging, GmbH, Germany).
(§2) FIGURE 2 Specific retention of TAT-ΔNS3/4A-FITC in NS3/4A-HCC36- and HCV-infected cells. HCC36 cells, NS3/4A-HCC36 cells, or JFH-1-infected HCC36 cells were incubated with 10 μM TAT-ΔNS3/4A-FITC in the absence or presence of 2 μM telaprevir (NS3/4A protease inhibitor) at 37°C for 1 h. The cells were washed with DMEM containing 10% serum three times per hour. After culturing for 1 or 8 h, the phase contrast and fluorescence of viable cells were observed under a fluorescence microscope. Scale bar: 100 μm.

The subject of data set [2] is JFH-1-infected HCC36 cells. The data set is described as follows: Retention of TAT-ΔNS3/4A-FITC in HCV-infected cells, fluorescence microscopy. As to conditions: fluorescence microscope. Format: cell-based, Human. As for the experimental part: Infectious HCV particles were generated as previously described ([Hayashi et al., 2014]). HCC36 cells (1 × 10^5) were seeded in DMEM containing 10% serum in a 24-well plate at 37°C in a CO2 incubator overnight. The cells were infected with JFH-1 and incubated with or without 2 μM telaprevir. After 5 days, the parental HCC36 and JFH-1-infected cells were stained with 10 μM of TAT-ΔNS3/4A-FITCat 37 °C for 1 h. After probe staining, the cells were washed using DMEM containing 10% serum per 20 min until the end of the experiment. After 8 h washing, the fluorescence of viable cells was observed under a fluorescence microscope at the indicated times (Axiovert 200, Carl Zeiss MicroImaging, GmbH, Germany).
as §2

The test system of data set [3] is HCC36 cells. The data set is described as follows: Retention of TAT-ΔNS3/4A-FITC in control cells, fluorescence microscopy. The format is cell-based, Human. As to conditions: fluorescence microscope. As to the method: as §1
Infectious HCV particles were generated as previously described ([Hayashi et al., 2014]). HCC36 cells (1 × 10^5) were seeded in DMEM containing 10% serum in a 24-well plate at 37°C in a CO2 incubator overnight. The cells were infected with JFH-1 and incubated with or without 2 μM telaprevir. After 5 days, the parental HCC36 and JFH-1-infected cells were stained with 10 μM of TAT-ΔNS3/4A-FITCat 37 °C for 1 h. […] After 8 h washing, the fluorescence of viable cells was observed under a fluorescence microscope at the indicated times (Axiovert 200, Carl Zeiss MicroImaging, GmbH, Germany).
FIGURE 2 Specific retention of TAT-ΔNS3/4A-FITC in NS3/4A-HCC36- and HCV-infected cells. […] After culturing for 1 or 8 h, the phase contrast and fluorescence of viable cells were observed under a fluorescence microscope. […]

The subject of data set [4] is HCC36 cells. The data set is described as follows: Specific retention of probe via flow cytometry. The format is cell-based, Human. The settings on record: control HCC36 cells. As for the experimental part:
(§3) We also used the WT probe (GRKKRRQRRR-[…]-LKKKYK-FITC) and the scrambled sequence probe (GRKKRRQRRR-[…]-LKKKYK) that could not be activated by protease as a control group to test the specific retention of probe via flow cytometry. HCC36 cells, NS3/4A-HCC36 cells, or JFH-1-infected HCC36 cells were incubated with 10 μM TAT-ΔNS3/4A-FITC or 10 μM TAT-scrambled NS3/4A-FITC in the absence or presence of 2 μM telaprevir (NS3/4A protease inhibitor) at 37 °C for 1 h. The cells were washed with DMEM containing 10% serum three times per hour. After culturing for 1 or 8 h, the fluorescence of viable cells was observed via flow cytometry.
(§4) Supplementary file Image_5.TIF: Supplementary Figure 5 To evaluate the specific retention of probe via flow cytometry, we used the WT probe (GRKKRRQRRR-[…]-LKKKYK-FITC) and the scrambled sequence probe (GRKKRRQRRR-[…]-LKKKYK) that could not be activated by protease as a control group to test the specific retention of probe via flow cytometry. HCC36 cells, NS3/4A-HCC36 cells, or JFH-1-infected HCC36 cells were incubated with 10 μM TAT-ΔNS3/4A-FITC or 10 μM TAT-scrambled NS3/4A-FITC in the absence or presence of 2 μM telaprevir (NS3/4A protease inhibitor) at 37°C for 1 h. The cells were washed with DMEM containing 10% serum three times per hour. After culturing for 1 or 8 h, the fluorescence of viable cells was observed via flow cytometry. Click here for additional data file.
(In general: Flow cytometry measures light scatter and fluorescence of single cells or particles in a stream.)

Data set [5] relates to JFH-1-infected HCC36 cells. Kind of data set: Specific retention of probe via flow cytometry. The format is cell-based, Human. As to the method: as §3, §4
Data set [6] concerns NS3/4A-HCC36 cells. Kind of data set: Specific retention of probe via flow cytometry. Format: cell-based, Human. As to the method: as §3, §4
The subject of data set [7] is NS3/4A-HCC36 and HCC36 tumors. The data set is described as follows: Histological analysis of FITC fluorescence in tumor sections after i.v. probe. As to conditions: i.v. 500 μM (in 100 μL), 4 h after injection, frozen sections, n = 3 mice. Format: in vivo, BALB/c nude mice. As to the method: BALB/c nude mice (n = 3) bearing established HCC36 and NS3/4A-HCC36 (100–200 mm^3) tumors in their right and left hind legs, respectively, were intravenously injected with 500 μM (in 100 μL) TAT-ΔNS3/4A-FITC and sacrificed 4 h later. Tumors were excised and embedded in OCT compound (Tissue-Tek, CA) in liquid nitrogen. The adjacent tumor sections either directly detect the FITC-fluorescent intensity to observe the accumulation of TAT-ΔNS3/4A-FITC probe or stained with a 520 HCV protease Assay Kit (AnaSpec) to visualize NS3/4A activity. The sections were examined on an upright BX4 microscope (Olympus, Melville, NY, USA) or viewed under phase contrast or fluorescence fields on an inverted Axiovert 200 microscope (Carl Zeiss Microimaging, Thornwood, NY, USA).
FIGURE 3 Specific retention of TAT-ΔNS3/4A-FITC in NS3/4A-expressing tumors in vivo. Mice bearing established NS3/4A-HCC36 and HCC36 tumors were injected with 500 μM TAT-NS3/4A-FITC and sacrificed after 4 h. Sections of NS3/4A-HCC36 (upper panels) and HCC36 (lower panels) tumors were stained with 520 HCV protease Assay Kit (AnaSpec) to detect NS3/4A activity in tumor sections. FITC-derived fluorescence (green) and NS3/4A activity (red) were observed under a fluorescence microscope. Scale bar: 1 mm.

The next data set relates to HEK293 cells. The settings on record: HEK293, 0.1–2,000 ug/ml, 72 h, cell viability by cellular ATP synthesis, compared with CPT-11.
[8] abbreviates: 10 μM probe + 2 μM telaprevir, 8 h.
The mark [9] stands for this setting: 10 μM probe, 37°C, 1 h staining.
Setting [10] is: 10 μM probe 1 h, washed every 20 min, 8 h.
[11] abbreviates: 10 μM probe 1 h, washed three times per hour, 8 h.

Protocol for HEK293 cells: HEK293 cells were incubated with different concentrations (0.1–2,000 ug/ml) of TAT-ΔNS3/4A-FITC or CPT-11. […] CPT-11: irinotecan hydrochloride.

Take “GRKKRRQRRR-DEDEDEDEMEECASH-LKKKYK-FITC [TAT-ΔNS3/4A-FITC]”: the “fluorescence retention after culturing for 8 h” value in the data set with NS3/4A-HCC36 cells [1] (10 μM probe 1 h, washed with DMEM 10% serum every 20 min, 8 h) was “strong fluorescence only accumulated in NS3/4A-HCC36 cells”; in data set [2] (setting [10]), “strong fluorescence only accumulated in NS3/4A-HCC36 cells and HCV-infected HCC36 cells”; in the data set with HCC36 cells [3] (setting [10]) it was “not in control HCC36 cells”; in the data set on HCC36 cells [4] (setting [11]) it was “not in control HCC36 cells”; in data set [5] (setting [11]), “strong fluorescence of WT probe only accumulated in NS3/4A-HCC36 cells and HCV-infected HCC36 cells”; in the data set on NS3/4A-HCC36 cells [6] (setting [11]) it was “strong fluorescence of WT probe only accumulated in NS3/4A-HCC36 cells”. The “fluorescence retention after 8 h in presence of NS3/4A inhibitor” value (in the data set on NS3/4A-HCC36 cells [1] (setting [8]); in data set [2] (setting [8])) was “did not accumulate” throughout. The “fluorescence accumulation after probe staining” value (with NS3/4A-HCC36 cells [1] (setting [9]); in data set [2] (setting [9]); in the data set with HCC36 cells [3] (setting [9])) was “strong fluorescence accumulated in each cell” each time. In addition, the “fluorescence after 1 h probe staining” value with HCC36 cells [4] (10 μM probe, 37°C, 1 h) is “strong fluorescence of WT probe accumulated in each cell”; in data set [5] (10 μM probe, 37°C, 1 h), “strong fluorescence of WT probe accumulated in each cell”; with NS3/4A-HCC36 cells [6] (10 μM probe, 37°C, 1 h), “strong fluorescence of WT probe accumulated in each cell”. Further, the “fluorescence retention after 8 h in presence of telaprevir” value (in data set [5] (setting [8]); in the data set on NS3/4A-HCC36 cells [6] (setting [8])) was “could block via the 2 μM telaprevir” each time. The “FITC-derived fluorescence in NS3/4A-HCC36 tumor sections” value in data set [7] is “accumulated in the NS3/4A-HCC3 tumors”. Moreover, in the data set with HEK293 cells, the “in vitro toxicity, growth of HEK293” value is given as “could not inhibit the growth of HEK293”.
